Patent publication US20230085307A1, “PYRIDAZINONE COMPOUND AND HERBICIDE” (NISSAN CHEMICAL CORPORATION, priority 2019, published 2023)

Columns and labels:
redroot pigweed [1] = experiment: Test Example 5: herbicidal effect by foliage application, plastic box (Table 20, symbol N); format: in vivo, redroot pigweed (Amaranthus retroflexus); conditions: amount of applied herbicide 320 g/ha; foliage application after 14-day growth; evaluated three weeks after application
Outline: (§1)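 Post-emergence foliar test in sterilized diluvial soil. Compound applied as water-diluted emulsion at a predetermined rate to 14-day-old plants; evaluation at three weeks.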

false cleavers = experiment: Test Example 4: herbicidal effect by soil treatment (Table 19, symbol Q); format: in vivo, false cleavers (Galium spurium); conditions: amount of applied herbicide 320 g/ha
Outline: (§2)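 Emulsion of test compound, water-diluted to predetermined amount, sprayed on soil after sowing (seed depth ~1.5 cm, sterilized diluvial soil). Greenhouse, 25–30° C. Effect graded at three weeks post-spray.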

velvetleaf [2] = experiment: Test Example 4: herbicidal effect by soil treatment (Table 19, symbol M); format: in vivo, velvetleaf (Abutilon theophrasti); conditions: amount of applied herbicide 320 g/ha
Outline: as §2

southern crabgrass [3] = experiment: Test Example 4: herbicidal effect by soil treatment (Table 19, symbol F); format: in vivo, southern crabgrass (Digitaria ciliaris); conditions: amount of applied herbicide 320 g/ha
Outline: as §2

Italian ryegrass [4] = experiment: Test Example 5: herbicidal effect by foliage application, plastic box (Table 20, symbol K); format: in vivo, Italian ryegrass (Lolium multiflorum); conditions: amount of applied herbicide 320 g/ha; foliage application after 14-day growth; evaluated three weeks after application
Outline: as §1

lambsquarters [5] = experiment: Test Example 4: herbicidal effect by soil treatment (Table 19, symbol O); format: in vivo, lambsquarters (Chenopodium album); conditions: amount of applied herbicide 320 g/ha
Outline: as §2

Italian ryegrass [6] = experiment: Test Example 4: herbicidal effect by soil treatment (Table 19, symbol K); format: in vivo, Italian ryegrass (Lolium multiflorum); conditions: amount of applied herbicide 320 g/ha
Outline: as §2

wild oat [7] = experiment: Test Example 5: herbicidal effect by foliage application, plastic box (Table 20, symbol I); format: in vivo, wild oat (Avena fatua); conditions: amount of applied herbicide 320 g/ha; foliage application after 14-day growth; evaluated three weeks after application
Outline: as §1

persian speedwell = experiment: Test Example 5: herbicidal effect by foliage application, plastic box (Table 20, symbol R); format: in vivo, Persian speedwell (Veronica persica); conditions: amount of applied herbicide 320 g/ha; foliage application after 14-day growth; evaluated three weeks after application
Outline: as §1

southern crabgrass [8] = experiment: Test Example 5: herbicidal effect by foliage application, plastic box (Table 20, symbol F); format: in vivo, southern crabgrass (Digitaria ciliaris); conditions: amount of applied herbicide 320 g/ha; foliage application after 14-day growth; evaluated three weeks after application
Outline: as §1

blackgrass [9] = experiment: Test Example 4: herbicidal effect by soil treatment (Table 19, symbol J); format: in vivo, blackgrass (Alopecurus myosuroides); conditions: amount of applied herbicide 320 g/ha
Outline: as §2

rice flat sedge = experiment: Test Example 3: herbicidal effect by foliage application, Wagner pot (Table 18, symbol E); format: in vivo, rice flat sedge (Cyperus iria); conditions: 320 g/ha
Outline: (§3)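 Plants were sown in alluvial soil held under 0.1–0.5 cm standing water and grown 14 days in a greenhouse at 25–30 °C. An emulsifiable formulation, water-diluted to the set dose, was then sprayed onto the foliage, and effects were scored three weeks later using previously defined criteria.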

redroot pigweed [10] = experiment: Test Example 4: herbicidal effect by soil treatment (Table 19, symbol N); format: in vivo, redroot pigweed (Amaranthus retroflexus); conditions: amount of applied herbicide 320 g/ha
Outline: as §2

chickweed [11] = experiment: Test Example 5: herbicidal effect by foliage application, plastic box (Table 20, symbol P); format: in vivo, common chickweed (Stellaria media); conditions: amount of applied herbicide 320 g/ha; foliage application after 14-day growth; evaluated three weeks after application
Outline: as §1

Chinese sprangletop = experiment: Test Example 3: herbicidal effect by foliage application, Wagner pot (Table 18, symbol D); format: in vivo, chinese sprangletop (Leptochloa chinensis); conditions: 320 g/ha
Outline: as §3

velvetleaf [12] = experiment: Test Example 5: herbicidal effect by foliage application, plastic box (Table 20, symbol M); format: in vivo, velvetleaf (Abutilon theophrasti); conditions: amount of applied herbicide 320 g/ha; foliage application after 14-day growth; evaluated three weeks after application
Outline: as §1

barnyard grass [13] = experiment: Test Example 4: herbicidal effect by soil treatment (Table 19, symbol H); format: in vivo, barnyard grass (Echinochloa crus-galli); conditions: amount of applied herbicide 320 g/ha
Outline: as §2

blackgrass [14] = experiment: Test Example 5: herbicidal effect by foliage application, plastic box (Table 20, symbol J); format: in vivo, blackgrass (Alopecurus myosuroides); conditions: amount of applied herbicide 320 g/ha; foliage application after 14-day growth; evaluated three weeks after application
Outline: as §1

oval-leafed pondweed = experiment: Test Example 1: herbicidal activity, application before weed generation under submerged conditions (Table 16, symbol C); format: in vivo, oval-leafed pondweed (Monochoria vaginalis); conditions: amount of applied herbicide 320 g/ha
Outline: (§4)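 Alluvial soil was flooded to 4 cm depth, weed seeds were sown mixed and 2.5-leaf rice seedlings were transplanted. On sowing day, the compound's emulsion, diluted in water to a set dose, was applied to the water surface. Plants grew at 25–30 °C and were scored 0–5 after three weeks.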

barnyard grass [15] = experiment: Test Example 3: herbicidal effect by foliage application, Wagner pot (Table 18, symbol H); format: in vivo, barnyard grass (Echinochloa crus-galli); conditions: 320 g/ha
Outline: as §3

windgrass [16] = experiment: Test Example 5: herbicidal effect by foliage application, plastic box (Table 20, symbol L); format: in vivo, windgrass (Apera spica-venti); conditions: amount of applied herbicide 320 g/ha; foliage application after 14-day growth; evaluated three weeks after application
Outline: as §1

barnyard grass [17] = experiment: Test Example 5: herbicidal effect by foliage application, plastic box (Table 20, symbol H); format: in vivo, barnyard grass (Echinochloa crus-galli); conditions: amount of applied herbicide 320 g/ha; foliage application after 14-day growth; evaluated three weeks after application
Outline: as §1

windgrass [18] = experiment: Test Example 4: herbicidal effect by soil treatment (Table 19, symbol L); format: in vivo, windgrass (Apera spica-venti); conditions: amount of applied herbicide 320 g/ha
Outline: as §2

chickweed [19] = experiment: Test Example 4: herbicidal effect by soil treatment (Table 19, symbol P); format: in vivo, common chickweed (Stellaria media); conditions: amount of applied herbicide 320 g/ha
Outline: as §2

late watergrass = experiment: Test Example 1: herbicidal activity, application before weed generation under submerged conditions (Table 16, symbol A); format: in vivo, late watergrass (Echinochloa oryzicola); conditions: amount of applied herbicide 320 g/ha
Outline: as §4

lambsquarters [20] = experiment: Test Example 5: herbicidal effect by foliage application, plastic box (Table 20, symbol O); format: in vivo, lambsquarters (Chenopodium album); conditions: amount of applied herbicide 320 g/ha; foliage application after 14-day growth; evaluated three weeks after application
Outline: as §1

wild oat [21] = experiment: Test Example 4: herbicidal effect by soil treatment (Table 19, symbol I); format: in vivo, wild oat (Avena fatua); conditions: amount of applied herbicide 320 g/ha
Outline: as §2

Japanese bulrush = experiment: Test Example 1: herbicidal activity, application before weed generation under submerged conditions (Table 16, symbol B); format: in vivo, Japanese bulrush (Schoenoplectus juncoides); conditions: amount of applied herbicide 320 g/ha
Outline: as §4

green foxtail [22] = experiment: Test Example 4: herbicidal effect by soil treatment (Table 19, symbol G); format: in vivo, green foxtail (Setaria viridis); conditions: amount of applied herbicide 320 g/ha
Outline: as §2

green foxtail [23] = experiment: Test Example 5: herbicidal effect by foliage application, plastic box (Table 20, symbol G); format: in vivo, green foxtail (Setaria viridis); conditions: amount of applied herbicide 320 g/ha; foliage application after 14-day growth; evaluated three weeks after application
Outline: as §1

Q: With CCCC(=O)Oc1c(C)nn(C)c(=O)c1-c1c(-c2ccc(F)cc2OCC)sc2cc(F)c(F)cc12 [5-032] as the compound, how does the “Herbicidal effect by foliage application, N: redroot pigweed” value (redroot pigweed [1]) read?
A: Its value is 3 (Herbicidal rate of 40% or more and less than 70%).

Q: And the “Q: false cleavers, herbicidal effect grade” value (false cleavers)?
A: The value was 0 (Herbicidal rate of 5% or less (almost no effect)).

Q: And the “M: velvetleaf, herbicidal effect grade” value (velvetleaf [2])?
A: The value was 1 (Herbicidal rate of 5% or more and less than 20%).

Q: What about the “F: southern crabgrass, herbicidal effect grade” value (southern crabgrass [3]) of the same compound?
A: Its value is 0 (Herbicidal rate of 5% or less (almost no effect)).

Q: What about the “Herbicidal effect by foliage application, K: Italian ryegrass” value (Italian ryegrass [4]) of the same compound?
A: Its value is 0 (Herbicidal rate of 5% or less (almost no effect)).

Q: What about the “O: lambsquarters, herbicidal effect grade” value (lambsquarters [5]) of the same compound?
A: Its value is 4 (Herbicidal rate of 70% or more and less than 90%).

Q: And the “K: Italian ryegrass, herbicidal effect grade” value (Italian ryegrass [6])?
A: Its value is 0 (Herbicidal rate of 5% or less (almost no effect)).

Q: And the “Herbicidal effect by foliage application, I: wild oat” value (wild oat [7])?
A: The value was 0 (Herbicidal rate of 5% or less (almost no effect)).

Q: What about the “Herbicidal effect by foliage application, R: persian speedwell” value (persian speedwell) of the same compound?
A: Its value is 3 (Herbicidal rate of 40% or more and less than 70%).

Q: And the “Herbicidal effect by foliage application, F: southern crabgrass” value (southern crabgrass [8])?
A: The value was 0 (Herbicidal rate of 5% or less (almost no effect)).

Q: And the “J: blackgrass, herbicidal effect grade” value (blackgrass [9])?
A: Its value is 3 (Herbicidal rate of 40% or more and less than 70%).

Q: And the “herbicidal effect on rice flat sedge (E)” value (rice flat sedge)?
A: Its value is 0 (Herbicidal rate of 5% or less (almost no effect)).

Q: And the “N: redroot pigweed, herbicidal effect grade” value (redroot pigweed [10])?
A: Its value is 4 (Herbicidal rate of 70% or more and less than 90%).

Q: And the “Herbicidal effect by foliage application, P: chickweed” value (chickweed [11])?
A: The value was 5 (Herbicidal rate of 90% or more (almost completely withered)).

Q: And the “herbicidal effect on Chinese sprangletop (D)” value (Chinese sprangletop)?
A: The value was 3 (Herbicidal rate of 40% or more and less than 70%).

Q: And the “Herbicidal effect by foliage application, M: velvetleaf” value (velvetleaf [12])?
A: The value was 4 (Herbicidal rate of 70% or more and less than 90%).

Q: What about the “H: barnyard grass, herbicidal effect grade” value (barnyard grass [13]) of the same compound?
A: The value was 0 (Herbicidal rate of 5% or less (almost no effect)).

Q: What about the “Herbicidal effect by foliage application, J: blackgrass” value (blackgrass [14]) of the same compound?
A: Its value is 3 (Herbicidal rate of 40% or more and less than 70%).

Q: And the “Herbicidal effect, C: oval-leafed pondweed” value (oval-leafed pondweed)?
A: The value was 0 (Herbicidal rate of 5% or less (almost no effect)).

Q: What about the “herbicidal effect on barnyard grass (H)” value (barnyard grass [15]) of the same compound?
A: The value was 4 (Herbicidal rate of 70% or more and less than 90%).

Q: What about the “Herbicidal effect by foliage application, L: windgrass” value (windgrass [16]) of the same compound?
A: The value was 4 (Herbicidal rate of 70% or more and less than 90%).

Q: What about the “Herbicidal effect by foliage application, H: barnyard grass” value (barnyard grass [17]) of the same compound?
A: Its value is 4 (Herbicidal rate of 70% or more and less than 90%).

Q: And the “L: windgrass, herbicidal effect grade” value (windgrass [18])?
A: Its value is 5 (Herbicidal rate of 90% or more (almost completely withered)).

Q: And the “P: chickweed, herbicidal effect grade” value (chickweed [19])?
A: Its value is 0 (Herbicidal rate of 5% or less (almost no effect)).

Q: And the “Herbicidal effect, A: late watergrass” value (late watergrass)?
A: The value was 4 (Herbicidal rate of 70% or more and less than 90%).

Q: What about the “Herbicidal effect by foliage application, O: lambsquarters” value (lambsquarters [20]) of the same compound?
A: Its value is 3 (Herbicidal rate of 40% or more and less than 70%).

Q: And the “I: wild oat, herbicidal effect grade” value (wild oat [21])?
A: Its value is 0 (Herbicidal rate of 5% or less (almost no effect)).

Q: What about the “Herbicidal effect, B: Japanese bulrush” value (Japanese bulrush) of the same compound?
A: Its value is 1 (Herbicidal rate of 5% or more and less than 20%).

Q: And the “G: green foxtail, herbicidal effect grade” value (green foxtail [22])?
A: Its value is 3 (Herbicidal rate of 40% or more and less than 70%).

Q: What about the “Herbicidal effect by foliage application, G: green foxtail” value (green foxtail [23]) of the same compound?
A: Its value is 2 (Herbicidal rate of 20% or more and less than 40%).
